Patent publication US10273228B2, “Hepatitis B viral assembly effectors” (Indiana University Research and Technology Corporation, priority 2015, dated 2019)
Where two headings read alike, the source gives them in different places.

Columns and labels:
[1] = test system: HBV viral load, AD38 cells; assay: Activity of test compounds on viral production from AD38 cells (viral load by quantitative PCR of the core sequence in supernatant); format: cell-based, Hepatitis B virus; conditions: 10 μM compound, 6 days at 37° C., vs DMSO control wells; for activity at 10 µM: Hepatitis B virus, 144 h, read-out: AD38 Viral Load (CpAM/DMSO %) at 10 μM
Procedure, shortened: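 Cells seeded at 50,000/well on collagen-coated plates and exposed for 6 days at 37 °C to compound at 1, 3 or 10 μM final (1.0% DMSO). Supernatant viral DNA measured by TaqMan qPCR of the core sequence against known standards, compared with DMSO control wells.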

[2] = test system: AD38 cells; assay: AD38 viability normalized to DMSO control; format: cell-based; conditions: 10 μM compound, vs DMSO control
Protocol: AD38 cells were then re-suspended with 10 mL of treatment medium and counted. Wells of a collagen coated 96-well NUNC microtiter plate were seeded at 50,000/well in 180 μL of treatment medium, and 20 μL of either 10% DMSO (Control) or a 10× solution of test compound in 10% DMSO in treatment media was added for a final compound concentration 1, 3, or 10 μM (1.0% final [DMSO]) and plates were incubated for 6 days at 37° C.

Row | Structure (SMILES) | activity at 10 µM ([1]; Table 9) [%] | AD38 Viability Normalized Result (CPAM/DMSO %) at 10 μM ([2]; Table 9) [%] | activity at 10 µM ([1]; Table 6) [%] | AD38 Viability Normalized Result (CPAM/DMSO %) at 10 μM ([2]; Table 6) [%] | AD38 Viral Load (CpAM/DMSO %) at 10 μM ([1]; Table 9) [%]
1 | COc1ccc(S(=O)(=O)N2CCN(c3nc(C)cc(Nc4ccc(C#N)cc4)n3)C(C)C2)cc1 (stereo not shown) [Compound 1363] | 1 | 93 |  |  | 
2 | COc1ccc(S(=O)(=O)N2CCN(c3nc(Nc4ccc(C)cc4)cc(NC(C)(C)C)n3)CC2)cc1 [Compound 1249] |  |  | 31 | 65 | 
3 | O=S(=O)(c1ccccc1)N1CCN(c2nc(Nc3ccc(F)cc3)cc(-n3cnnc3)n2)CC1 [Compound 1314] |  |  | 36 | 94 | 
4 | N#Cc1ccc(Nc2cc(-c3nccs3)nc(N3CCN(S(=O)(=O)c4ccc(F)cc4)CC3)n2)cc1 [Compound 1365] | 53 | 98 |  |  | 
5 | CCCCOc1ccc(S(=O)(=O)N2CCN(c3nc(Nc4ccc(F)cc4)cc(C(F)(F)F)n3)CC2)cc1 [Compound 1342] | 17 | 107 |  |  | 
6 | COc1cccc(S(=O)(=O)N2CCN(c3cc(C)cc(Nc4ccc(C)cc4)n3)CC2)c1 [Compound 1173] |  |  | 9 | 105 | 
7 | COc1ccc(S(=O)(=O)N2CCN(c3nc(Nc4ccc(C)cc4)cc(-c4nccs4)n3)CC2)cc1 [Compound 1242] |  |  | 30 | 103 | 
8 | COc1ccc(S(=O)(=O)N2CCN(c3nc(Nc4ccc(C)cc4)cc(OCCO)n3)CC2)cc1 [Compound 1265, 2-((2-(4-((4-methoxyphenyl)sulfonyl)piperazin-1-yl)-6-(p-tolylamino)pyrimidin-4-yl)oxy) ethan-1-ol] |  |  | 13 | 102 | 
9 | O=S(=O)(c1ccccc1)N1CCN(c2nc(Nc3ccc(F)cc3)cc(C(F)(F)F)n2)CC1 [Compound 1343] | 6 | 31 |  |  | 
10 | Cc1ccc(Nc2cc(C)nc(N3CCN(S(=O)(=O)c4ccncc4)CC3)n2)cc1 [Compound 1258] |  |  | 50 | 105 | 
11 | O=S(=O)(c1cccc(C(F)(F)F)c1)N1CCN(c2nc(Nc3ccc(F)cc3)cc(-n3cnnc3)n2)CC1 [Compound 1313] |  |  | 47 | 93 | 
12 | O=S(=O)(c1ccccc1)N1CCN(c2nc(Nc3ccc(F)cc3)cc(-c3nccs3)n2)CC1 [Compound 1360] | 28 | 94 |  |  | 
13 | CCCCOc1ccc(S(=O)(=O)N2CCN(c3nc(Nc4ccc(C#N)cc4)cc(C(F)(F)F)n3)CC2)cc1 [Compound 1334] | 2 | 102 |  |  | 
14 | CC(C)c1cc(Oc2ccc(F)cc2)nc(N2CCN(S(=O)(=O)c3ccc(C(F)(F)F)cc3)CC2)n1 [Compound 1296] |  |  | 102 | 103 | 
15 | Cc1cc(Nc2ccc(F)cc2)nc(N2CCN(S(=O)(=O)c3ccc(OCC(=O)O)cc3)CC2)n1 [Compound 1384, 2-(4-((4-(4-((4-fluorophenyl)amino)-6-methylpyrimidin-2-yl)piperazin-1-yl)sulfonyl)phenoxy) acetic acid] | 122 | 91 |  |  | 
16 | COc1ccc(S(=O)(=O)N2CCN(c3nc(C)cc(S(=O)(=O)c4ccc(C)cc4)n3)CC2)cc1 [Compound 1160, 2-(4-((4-methoxyphenyl)sulfonyl)piperazin-1-yl)-4-methyl-6-tosylpyrimidine] |  |  | 60 | 110 | 
17 | COc1ccc(S(=O)(=O)N2CCN(c3nc(C)cc(Nc4ncc(C)cn4)n3)CC2)cc1 [Compound 1261] |  |  | 87 | 98 | 
18 | Cc1ccc(S(=O)(=O)N2CCN(c3nc(Nc4ccc(C#N)cc4)cc(-c4nccs4)n3)CC2)cc1 [Compound 1356] | 6 | 97 |  |  | 
19 | CC(C)c1cc(Oc2ccc(F)cc2)nc(N2CCN(S(=O)(=O)c3ccc(F)cc3)CC2)n1 [Compound 1295] |  |  | 84 | 101 | 
20 | Cc1ccc(Nc2cc(C)nc(N3CCN(S(=O)(=O)c4ccc(N)nc4)CC3)n2)cc1 [Compound 1245] |  |  | 70 | 99 | 
21 | O=S(=O)(c1ccc(F)cc1)N1CCN(c2nc(Nc3ccc(F)cc3)cc(-n3cnnc3)n2)CC1 [Compound 1312] |  |  | 31 | 96 | 

Row | Structure (SMILES) | activity at 10 µM ([1]; Table 9) [%] | AD38 Viability Normalized Result (CPAM/DMSO %) at 10 μM ([2]; Table 9) [%] | activity at 10 µM ([1]; Table 6) [%] | AD38 Viability Normalized Result (CPAM/DMSO %) at 10 μM ([2]; Table 6) [%] | AD38 Viral Load (CpAM/DMSO %) at 10 μM ([1]; Table 9) [%]
22 | Cc1ccc(Nc2cc(C)nc(N3CCN(S(=O)(=O)c4cccc5ccccc45)CC3)n2)cc1 [Compound 1135] |  |  | 16 | 107 | 
23 | O=S(=O)(c1ccc(OC(F)(F)F)cc1)N1CCN(c2nc(Nc3ccc(F)cc3)cc(-c3nccs3)n2)CC1 [Compound 1367] |  | 105 |  |  | 44
24 | N#Cc1ccc(Nc2cc(-c3nccs3)nc(N3CCN(S(=O)(=O)c4ccccc4)CC3)n2)cc1 [Compound 1355] | 5 | 103 |  |  | 
25 | Cc1ccc(S(=O)(=O)N2CCN(c3nc(Oc4ccc(F)cc4)cc(C(C)C)n3)CC2)cc1 [Compound 1288] |  |  | 102 | 105 | 
26 | COc1ccc(S(=O)(=O)N2CCN(c3nc(Nc4ccc(C)cc4)cc(-n4cnnc4)n3)CC2)cc1 [Compound 1282, 2-(4-((4-methoxyphenyl)sulfonyl)piperazin-1-yl)-N-(p-tolyl)-6-(4H-1,2,4-triazol-4-yl) pyrimidin-4-amine] |  |  | 22 | 99 | 
27 | COc1ccc(S(=O)(=O)N2CCN(c3nc(Nc4ccc(C)cc4)cc(-c4ccccn4)n3)CC2)cc1 [Compound 1250, 2-(4-((4-methoxyphenyl)sulfonyl)piperazin-1-yl)-6-(pyridin-2-yl)-N-(p-tolyl) pyrimidin-4-amine] |  |  | 56 | 101 | 
28 | COC(=O)c1ccc(S(=O)(=O)N2CCN(c3nc(Nc4ccc(F)cc4)cc(C(F)(F)F)n3)CC2)cc1 [Compound 1386] | 23 | 118 |  |  | 
29 | Cc1ccc(Nc2cc(C)nc(N3CCN(S(=O)(=O)c4ccc(Oc5ccccc5)cc4)CC3)n2)cc1 [Compound 1136] |  |  | 24 | 113 | 
30 | Cc1ccc(S(=O)(=O)N2CCN(c3nc(Oc4ccc(F)cc4)cc(-n4cnnc4)n3)CC2)cc1 [Compound 1310] |  |  | 50 | 81 | 
31 | CCOC(=O)C(C)(C)Oc1ccc(S(=O)(=O)N2CCN(c3nc(Nc4ccc(F)cc4)cc(C(F)(F)F)n3)CC2)cc1 [Compound 1406, ethyl 2-(4-((4-(4-((4-fluorophenyl)amino)-6-(trifluoromethyl)pyrimidin-2-yl)piperazin-1-yl)sulfonyl)phenoxy)-2-methylpropanoate] | 63 | 98 |  |  | 
32 | CCCCOc1ccc(S(=O)(=O)N2CCN(c3nc(Nc4ccc(C#N)cc4)cc(-c4nccs4)n3)CC2)cc1 [Compound 1354] | 24 | 97 |  |  | 
33 | COC(=O)Cc1ccc(S(=O)(=O)N2CCN(c3nc(Nc4ccc(F)cc4)cc(C(F)(F)F)n3)CC2)cc1 [Compound 1408, methyl 2-(4-((4-(4-((4-fluorophenyl)amino)-6-(trifluoromethyl)pyrimidin-2-yl)piperazin-1-yl)sulfonyl)phenyl) acetate] |  | 107 |  |  | 8
34 | CN(C)c1cc(Oc2ccc(F)cc2)nc(N2CCN(S(=O)(=O)c3ccc(F)cc3)CC2)n1 [Compound 1297] |  |  | 59 | 103 | 
35 | COc1ccc(S(=O)(=O)N2CCN(c3nc(C)cc(Nc4ccc(C#N)cc4)n3)C(=O)C2)cc1 [Compound 1352] | 89 | 96 |  |  | 
36 | Cc1ccc(S(=O)(=O)N2CCN(c3nc(Oc4ccc(F)cc4)cc(N(C)C)n3)CC2)cc1 [Compound 1290] |  |  | 62 | 105 | 
37 | O=S(=O)(c1ccc(OC(F)(F)F)cc1)N1CCN(c2nc(Nc3ccc(F)cc3)cc(-c3nccs3)n2)CC1 [Compound 1357] |  | 95 |  |  | 67
38 | CC(C)c1cc(Oc2ccc(F)cc2)nc(N2CCN(S(=O)(=O)c3ccccc3)CC2)n1 [Compound 1301] |  |  | 63 | 102 | 
39 | COc1ccc(S(=O)(=O)N2CCN(c3nc(C)cc(Nc4cncnc4)n3)CC2)cc1 [Compound 1186] |  |  | 76 | 106 | 
40 | COc1ccc(S(=O)(=O)N2CCN(c3nc(Nc4ccc(C)cc4)cc(N(C)C)n3)CC2)cc1 [Compound 1143] |  |  | 8 | 107 | 
41 | CN(C)c1cc(Oc2ccc(F)cc2)nc(N2CCN(S(=O)(=O)c3ccc(C(F)(F)F)cc3)CC2)n1 [Compound 1298] |  |  | 100 | 97 | 
